From patent US20180023041A1, “CLEANING COMPOSITIONS CONTAINING A DIAMINOSTILBENE BRIGHTENER” (The Procter & Gamble Company, priority 2016, published 2018)

Assay: Dissolution of brightener from granular laundry detergent formulations in hardness water, UV-Vis absorbance of filtered solution at 350 nm
Assay type: physicochemical
Conditions: in comparison with the control formulation with LAS only; in words
Experimental: The total surfactant levels for Formulations A-H are maintained the same at 20 wt %.
Prepare 10 gpg hardness water (Ca:Mg=3:1) and place 1L of such hardness water in each of 8 beakers separately. Weight a 6.12g sample from each of the Formulations A-H hereabove respectively, and put the samples into beakers with hardness water on the maganetic stirrers. Stir for 15 mins to dissolve the sample.
Take about 8 ml solution by using a 10m1 injection syringe. Install a 0.45pm filter on the injection syringe for filtering the solution when it is injected out of the syringe. Inject the filtered solution into a sample cuvette of the UV-Vis spectrophotometer. Place the sample cuvette in a measuring position of the UV-Vis spectrophotometer. Read and record the absorbance (ABS) of solutions at a UV wavelength of 350nm respectively.

dissolution of the brightener in a surfactant system containing LAS, mid-cut AS, and soap: much less
Compound: O=S(=O)([O-])c1ccccc1C=Cc1ccc(-c2ccc(C=Cc3ccccc3S(=O)(=O)[O-])cc2)cc1.[Na+].[Na+] [Florescent Brigthener 351, disodium 2,2′-([1,1′-biphenyl]-4,4′-diyldivinylene)bis(benzenesulphonate)]
